Results reported in patent US3959272A, “Aminoalkyl esters of 2-anilino-nicotinic acids” (Societe Anonyme dite: Hexachime, priority 1972, dated 1976).

Experiments:
[1] = Acute toxicity in the rat; conditions: in vivo
[2] = Overall result of the pharmacological tests; assay type: in vivo; conditions: according to the results obtained
From the text: The new compounds show these properties in the tests usually used to determine them.

Laparotomy test = assay type: in vivo, rat; conditions: as the hydrochloride; for ED50: Rattus norvegicus, ip, intraperitoneal
Protocol: Rats weighing 110 to 130 g each received the product of Example 1 (as the hydrochloride) by intraperitoneal injection. 10 or 30 Minutes after the treatment, the animals are examined to see:
1. If they allow themselves to remain lying on their backs;
3. if they tolerate an incision into the skin; and
4. if they tolerate an incision into the muscle. If an animal submits without reaction it is counted as zero, and if it reacts it is counted as one. The total score is calculated for each dosage. The following table gives the percentage protection and the number of sleeping rats.

[3] = Antagonism of convulsions produced by cardiazole; assay type: in vivo; conditions: Mus musculus, ip, read-out: Percentage inhibition of tonic convulsions
Protocol: Groups of 6 mice received the compound under test 30 minutes before introperitoneal injection of 160 mg/kg of cardiazole. The action of the compound under test on the tonic convulsion phase was observed.

[4] = Analgesic activity: Siegmund's test (phenylbenzoquinone painful reactions); assay type: in vivo; conditions: Mus musculus, po, read-out: percentage inhibition of reactions
Protocol: This activity was measured by Siegmund's test in mice and Randall and Selitto's test in the rat.
Groups of six mice received the compound under test orally 1 hour before intraperitoneal injection of 0.2 ml of an 0.02% of solution of phenylbenzoquinone. The number of painful reactiors from the fifth to the tenth minute after the injection of phenylbenzoquinone was counted.

[5] = Action on isoprenaline in dogs; assay type: in vivo, dog; conditions: only if atropinised and bivagotomised
[6] = Cardiovascular parameters: atropinised and bivagotomised dogs; assay type: in vivo, dog
Protocol: Unsorted dogs of either sex weighing 8 to 17 kg and anaesthetised by chloralose in solution in polyethylene glycol 300 (0.12 g/kg) were respirated artificially using a Bird pump (Mark 7). The carotid arterial blood pressure was measured with the aid of a Statham P 23 dB device. The left ventricular pressure is measured with the same device connected by a supple catheter introduced by the femoral artery and pushed into the left ventricle. The cardiac rhythm is measured from the signals of the carotid pressure. The myocardial contractile force is measured using a strain gauge (Apelab) attached to the right ventricle. All the parameters are recorded on a Beckman polygraph. Two series of dogs are used to test the cardiovascular activity: 5 dogs atropinised (1 mg/kg intravenously) and bivagotomised; and a second series of 4 intact dogs. The product of Example 1 was injected through the saphena vein and the duration of the injection was 2 minutes.
The following Table VIII gives the variations of the recorded parameters and their significance according to the t test (* p< 0.05; ** p<0.01).

[7] = assay type: in vivo, dog; conditions: 48 mg/kg intravenously at 1 mg/kg/minute; two dogs
Protocol: (§1) The compounds under test were administered to rats or mice intraperitoneally. The loss of the righting reflex was noted and the duration of sleep measured objectively with reference to the loss of the righting reflex. The compounds under test were also administered by slow perfusion to dogs. The moment when the dog fell asleep and the duration of sleep was noted.
Two dogs each weighing 11 kg. received intravenously 48 mg/kg of the product of Example 1 perfused at the rate of 1 mg/kg/minute. Sleep appeared at the end of 25 minutes and lasted for 15 minutes. The animals were sleepy for 1 hour after the end of the perfusion.

[8] = Hypnotic activity in rats or mice (loss of righting reflex); assay type: in vivo; conditions: for % of sleeping animals: mice
Protocol: as §1

[9] = Acute toxicity in the mouse; conditions: in vivo
[10] = 5 mg/kg intravenously, 5 dogs, * p<0.05
[11] = 8 mg/kg intravenously, 5 dogs, ** p<0.01

For `Cc1cccc(Nc2ncccc2C(=O)OCCN2CCOCC2)c1C` [Example 1, β-Morpholino ethyl nixylate], the LD50 at 168 h ([1]; ip) was 875 mg/kg, the LD50 at 168 h ([1]; po) was greater than 2350 mg/kg and the “activity relative to the other compounds” value [2] was “the most active compound”. It also gave an ED50 (Laparotomy test; 10 min, 10 min after treatment) of 44 mg/kg, an ED50 (Laparotomy test; 0.5 h, 30 min after treatment) of 100 mg/kg and a Percentage protection (Laparotomy test; 16 mg/kg intraperitoneally, 10 min after treatment, 12 rats) of 6%. The “Number of sleeping rats” value (Laparotomy test; 16 mg/kg intraperitoneally, 10 min after treatment, of 12 rats) was 0, the Percentage protection (Laparotomy test; 16 mg/kg intraperitoneally, 30 min after treatment, 6 rats) was 0% and the “Number of sleeping rats” value (Laparotomy test; 16 mg/kg intraperitoneally, 30 min after treatment, of 6 rats) was 0. For the same molecule, the Percentage protection (Laparotomy test; 32 mg/kg intraperitoneally, 10 min after treatment, 12 rats) was 34%, the “Number of sleeping rats” value (Laparotomy test; 32 mg/kg intraperitoneally, 10 min after treatment, of 12 rats) was 0 and the Percentage protection (Laparotomy test; 32 mg/kg intraperitoneally, 30 min after treatment, 6 rats) was 0%. The “Number of sleeping rats” value (Laparotomy test; 32 mg/kg intraperitoneally, 30 min after treatment, of 6 rats) was 0, the Percentage protection (Laparotomy test; 64 mg/kg intraperitoneally, 10 min after treatment, 24 rats) was 62% and the “Number of sleeping rats” value (Laparotomy test; 64 mg/kg intraperitoneally, 10 min after treatment, of 24 rats) was 0. For the same molecule, the Percentage protection (Laparotomy test; 64 mg/kg intraperitoneally, 30 min after treatment, 24 rats) was 34%, the “Number of sleeping rats” value (Laparotomy test; 64 mg/kg intraperitoneally, 30 min after treatment, of 24 rats) was 0 and the Percentage protection (Laparotomy test; 128 mg/kg intraperitoneally, 10 min after treatment, 12 rats) was 96%. The “Number of sleeping rats” value (Laparotomy test; 128 mg/kg intraperitoneally, 10 min after treatment, of 12 rats) was 0, the Percentage protection (Laparotomy test; 128 mg/kg intraperitoneally, 30 min after treatment, 12 rats) was 62% and the “Number of sleeping rats” value (Laparotomy test; 128 mg/kg intraperitoneally, 30 min after treatment, of 12 rats) was 8. For the same molecule, the Percentage protection (Laparotomy test; 256 mg/kg intraperitoneally, 30 min after treatment, 6 rats) was 92%, the “Number of sleeping rats” value (Laparotomy test; 256 mg/kg intraperitoneally, 30 min after treatment, of 6 rats) was 6 and the inhibition in vivo at 8 mg/kg ([3]; 8 mg/kg intraperitoneally) was 0%. The inhibition in vivo at 16 mg/kg ([3]; 16 mg/kg intraperitoneally) was 12%, the inhibition in vivo at 32 mg/kg ([3]; 32 mg/kg intraperitoneally) was 21% and the inhibition in vivo at 64 mg/kg ([3]; 64 mg/kg intraperitoneally) was 62%. For the same molecule, the inhibition in vivo at 128 mg/kg ([3]; 128 mg/kg intraperitoneally) was 95%, the inhibition in vivo at 4 mg/kg ([4]; 4 mg/kg orally) was 10% and the inhibition in vivo at 8 mg/kg ([4]; 8 mg/kg orally) was 26%. The inhibition in vivo at 16 mg/kg ([4]; 16 mg/kg orally) was 26%, the inhibition in vivo at 32 mg/kg ([4]; 32 mg/kg orally) was 45% and the inhibition in vivo at 64 mg/kg ([4]; 64 mg/kg orally) was 64%. For the same molecule, the inhibition in vivo at 128 mg/kg ([4]; 128 mg/kg orally) was 83%, the inhibition in vivo at 256 mg/kg ([4]; 256 mg/kg orally) was 95% and the “potentiation of the action of isoprenaline” value [5] was “potentiates the action of isoprenaline in 3 dogs out of 5”. The Average blood pressure ([6]; 1 mg/kg intravenously, 5 dogs) was -4±2%, the Diastolic blood pressure ([6]; 1 mg/kg intravenously, 5 dogs) was -4±2% and the Systolic blood pressure ([6]; 1 mg/kg intravenously, 5 dogs) was -3,3±3%. For the same molecule, the Average blood pressure ([6]; 2 mg/kg intravenously, 2 dogs) was -12%, the Diastolic blood pressure ([6]; 2 mg/kg intravenously, 2 dogs) was -12% and the “Duration of reduced blood pressure” value ([6]; 2 mg/kg intravenously, 2 dogs) was 30. The Systolic blood pressure ([6]; 2 mg/kg intravenously, 2 dogs) was -12%, the “Change in cardiac rhythm” value ([6]; 5 mg/kg intravenously, 5 dogs) was -8 to -20 beats per minute and the Diastolic blood pressure [6, 10] was -15±4%. The Systolic blood pressure [6, 10] was -13±3%, the Average blood pressure ([6]; 5 mg/kg intravenously, 5 dogs, ** p<0.01) was -14±3% and the “Change in cardiac rhythm” value ([6]; 8 mg/kg intravenously, 5 dogs) was -8 to -20 beats per minute. The Average blood pressure [6, 11] was -26±5%, the Diastolic blood pressure [6, 11] was -27±5% and the Systolic blood pressure [6, 11] was -24±5%. The Average blood pressure ([6]; 16 mg/kg intravenously, 2 dogs) was -31%, the “Change in cardiac rhythm” value ([6]; 16 mg/kg intravenously, 2 dogs) was -18 to -24 beats per minute and the Diastolic blood pressure ([6]; 16 mg/kg intravenously, 2 dogs) was -32%. The “Duration of reduced blood pressure” value ([6]; 16 mg/kg intravenously, 2 dogs) was greater than 30, the Systolic blood pressure ([6]; 16 mg/kg intravenously, 2 dogs) was -30% and the blood pressure ([6]; doses of 4 mg/kg and above, during the injection or one to two minutes afterwards) was “reduction in blood pressure”. The contractile force ([6]; during the injection or one to two minutes afterwards, 2 dogs only) was “slight increase in the contractile force”, the “increase in the cardiac rhythm” value ([6]; during the injection or one to two minutes afterwards, according to the dose) was 2-16 beats per minute and the “left ventricular blood pressure” value ([6]; measured in two dogs only) was “followed the variations of the arterial blood pressure”. The hypotension ([6]; two minutes after the injection) was “hypotension proportional to the dose injected”, the duration of sleep [7] was 15 min and the “time animals were sleepy after the end of the perfusion” value [7] was 1 h. The “time at which sleep appeared” value [7] was 25 min, the “% of sleeping animals” value ([8]; 50 mg/kg intraperitoneally) was 0% and the “% of sleeping animals” value ([8]; 75 mg/kg intraperitoneally) was 46%. For the same molecule, the “% of sleeping animals” value ([8]; 100 mg/kg intraperitoneally) was 57%, the “% of sleeping animals” value ([8]; 125 mg/kg intraperitoneally) was 84% and the “% of sleeping animals” value ([8]; 200 mg/kg intraperitoneally) was 92%. The “% of sleeping animals” value ([8]; 250 mg/kg intraperitoneally) was 100%, the sleep caused ([8]; only this product of those tested) was “caused sleep” and the LD50 at 168 h ([9]; ip) was 700 mg/kg. The LD50 at 168 h ([9]; iv) was 110 mg/kg and the LD50 at 168 h ([9]; po) was 1600 mg/kg.
